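These data come from cells grown in 96-well plates and exposed to compound for 48 hours at five concentrations. GI50 = concentration required for 50% inhibition of growth.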 Active and inactive are the calls of the source. Rule as the data show it: active = GI50 up to about 1.1 µM and inactive = higher.
How the values were obtained:
Assay in all cases: DTP human tumour cell line panel, 48 h
DLD-1 = tested on: DLD-1
DMS-114 = tested on: DMS-114
DMS-273 = tested on: DMS-273
HOP-18 = tested on: HOP-18
KM-20L2 = tested on: KM-20L2
LXFL 529 = tested on: LXFL 529
RXF 631 = tested on: RXF 631
SNB-78 = tested on: SNB-78
XF498 = tested on: XF498

Measured: GI50

COc1ccccc1/C=C1\CCC(CN2CCOCC2)C1=O (centres undefined)
inactive: DLD-1 3.84 µM | DMS-114 16 µM | DMS-273 13.6 µM | HOP-18 17.9 µM | KM-20L2 16.6 µM | LXFL 529 3.28 µM | RXF 631 11.9 µM | SNB-78 20 µM | XF498 16.4 µM

Source: ChEMBL document CHEMBL1201862, “PubChem BioAssay data set” (2004)
